Assay results: US20020137929A1, “1 - (3-heterocyclylphenyl) isothiourea, -isourea, -guanidine and -amidine herbicidal agents” (Intellectual Property Department, BASF Aktiengesellschaft, priority 1998, published 2002)

Experiments:
[1] = test system: IPOHE (Morningglory, Ivyleaf); assay: Postemergence herbicidal evaluation; format: in vivo, Ipomoea hederacea; settings: for IPOHE herbicidal rating: postemergence
Summary of the method: (§1)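 Rate range approx. 0.0156–0.500 kg/ha. Foliar application at 40 psi to ~2-week seedlings; surfactant 0.5% TWEEN 20 in 50/50 acetone/water. Evaluation 4–5 wk post-treatment by 0–9 visual injury score, means of replicate tests.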

[2] = test system: ECHORC (Watergrass (Calif.)); assay: Preemergence weed control under flooded paddy conditions; format: in vivo, Echinochloa oryzoides; settings: rated 3-4 weeks after treatment
Summary of the method: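 Silt loam, seeds in top 0.5 cm; flood held 1.5-3 cm; test cpd as acetone/water 50/50 into flood water, ~0.0313-0.500 kg/ha a.i.; greenhouse 3-4 wk; visual 0-9 score vs control.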

[3] = test system: IPOHE (Morningglory, Ivyleaf); assay: Preemergence herbicidal evaluation; format: in vivo, Ipomoea hederacea; settings: rated 4-5 weeks after treatment
Summary of the method: (§2)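 Rating at 4–5 wk post-spray on a 0–9 visual scale vs control. Application: aqueous acetone, ~0.0156–0.500 kg/ha, to soil surface after seeding, preemergence.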

ABUTH (Velvetleaf) = assay: Postemergence herbicidal evaluation; format: in vivo, Abutilon theophrasti; settings: for ABUTH herbicidal rating: postemergence
Summary of the method: as §1

ECHCG (Barnyardgrass) = assay: Preemergence herbicidal evaluation; format: in vivo, Echinochloa crus-galli; settings: rated 4-5 weeks after treatment
Summary of the method: as §2

[4] = test system: TRZAWR (Wheat, Winter, cv Riband); assay: Postemergence herbicidal evaluation; format: in vivo, Triticum aestivum; settings: for TRZAWR herbicidal rating: postemergence
Summary of the method: as §1

[5] = test system: TRZAWR (Wheat, Winter, cv Riband); assay: Preemergence herbicidal evaluation; format: in vivo, Triticum aestivum; settings: rated 4-5 weeks after treatment
Summary of the method: as §2

[6] = test system: ECHORC (Watergrass (Calif.)); assay: Postemergence weed control under flooded paddy conditions; format: in vivo, Echinochloa oryzoides; settings: postemergence weeds
Summary of the method: (§3)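 Containers holding 3–5 cm weeds and rice at 1.5–2.5 leaves are flooded to 1.5–3 cm above soil. Compound in 50/50 v/v aqueous/acetone is then added directly to the water, about 0.0313–0.500 kg/ha. Plants are kept in the greenhouse and rated 0–9 visually at 3–4 weeks.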

[7] = test system: CHEAL (Lambsquarters, Common); assay: Preemergence herbicidal evaluation; format: in vivo, Chenopodium album; settings: rated 4-5 weeks after treatment
Summary of the method: as §2

ORYSAT (Rice, Tebonnet) = assay: Preemergence herbicidal evaluation; format: in vivo, Oryza sativa, (L.) Tebonnet; settings: rated 4-5 weeks after treatment
Summary of the method: as §2

SETVI (Foxtail, Green) = assay: Preemergence herbicidal evaluation; format: in vivo, Setaria viridis; settings: rated 4-5 weeks after treatment
Summary of the method: as §2

CYPIR (Rice Flatsedge) = assay: Postemergence weed control under flooded paddy conditions; format: in vivo, Cyperus iria; settings: postemergence weeds
Summary of the method: as §3

[8] = rate 0.0313 kg/ha, 3-4 weeks after treatment
[9] = rate 0.0625 kg/ha, 3-4 weeks after treatment
[10] = rate 0.1250 kg/ha, 3-4 weeks after treatment
[11] = rate 0.2500 kg/ha, 3-4 weeks after treatment
[12] = Rate 0.0313 kg/ha, rated 3 to 4 weeks after treatment
[13] = Rate 0.0625 kg/ha, rated 3 to 4 weeks after treatment
[14] = Rate 0.1250 kg/ha, rated 3 to 4 weeks after treatment
[15] = Rate 0.2500 kg/ha, rated 3 to 4 weeks after treatment

CCOC(=O)CN1C(=O)C(Cc2ccccc2OC)SC1=Nc1cc(-n2c(=O)cc(C(F)(F)F)n(C)c2=O)c(F)cc1Cl (stereo not drawn) [Compound 37, Ethyl 2-{{2-chloro-5-[3,6-dihydro-3-methyl-2,6-dioxo-4-(trifluoromethyl)-1(2H)-pyrimidinyl]-4-fluorophenyl}imino}-5-(o-methoxybenzyl)-4-oxo-3-thiazolidineacetate]
Postemergence herbicidal rating IPOHE ([1]; Rate 0.0158 kg/ha): 9.0 | Postemergence herbicidal rating IPOHE ([1]; Rate 0.0315 kg/ha): 9.0 | Postemergence herbicidal rating IPOHE ([1]; Rate 0.0630 kg/ha): 9.0 | Herbicidal rating ECHORC ([2]; 0.0313 kg/ha): 4.0 | Herbicidal rating ECHORC ([2]; 0.0625 kg/ha): 6.0 | Herbicidal rating ECHORC ([2]; 0.1250 kg/ha): 7.0 | Herbicidal rating ECHORC ([2]; 0.2500 kg/ha): 7.0 | Preemergence herbicidal rating IPOHE ([3]; rate 0.1250 kg/ha): 0.0 | Preemergence herbicidal rating IPOHE ([3]; rate 0.2500 kg/ha): 0.0 | Postemergence herbicidal rating ABUTH (ABUTH (Velvetleaf); Rate 0.0158 kg/ha): 9.0 | Postemergence herbicidal rating ABUTH (ABUTH (Velvetleaf); Rate 0.0315 kg/ha): 9.0 | Postemergence herbicidal rating ABUTH (ABUTH (Velvetleaf); Rate 0.0630 kg/ha): 9.0 | Preemergence herbicidal rating ECHCG (ECHCG (Barnyardgrass); rate 0.1250 kg/ha): 0.0 | Preemergence herbicidal rating ECHCG (ECHCG (Barnyardgrass); rate 0.2500 kg/ha): 0.0 | Postemergence herbicidal rating TRZAWR ([4]; Rate 0.0158 kg/ha): 2.0 | Postemergence herbicidal rating TRZAWR ([4]; Rate 0.0315 kg/ha): 2.0 | Postemergence herbicidal rating TRZAWR ([4]; Rate 0.0630 kg/ha): 2.0 | Preemergence herbicidal rating TRZAWR ([5]; rate 0.1250 kg/ha): 0.0 | Preemergence herbicidal rating TRZAWR ([5]; rate 0.2500 kg/ha): 0.0 | Herbicidal rating ECHORC [6, 8]: 4.0 | Herbicidal rating ECHORC [6, 9]: 6.0 | Herbicidal rating ECHORC [6, 10]: 7.0 | Herbicidal rating ECHORC [6, 11]: 7.0 | Preemergence herbicidal rating CHEAL ([7]; rate 0.1250 kg/ha): 9.0 | Preemergence herbicidal rating CHEAL ([7]; rate 0.2500 kg/ha): 9.0 | Preemergence herbicidal rating ORYSAT (ORYSAT (Rice, Tebonnet); rate 0.1250 kg/ha): 0.0 | Preemergence herbicidal rating ORYSAT (ORYSAT (Rice, Tebonnet); rate 0.2500 kg/ha): 0.0 | Preemergence herbicidal rating SETVI (SETVI (Foxtail, Green); rate 0.1250 kg/ha): 0.0 | Preemergence herbicidal rating SETVI (SETVI (Foxtail, Green); rate 0.2500 kg/ha): 0.0 | Herbicidal rating CYPIR (CYPIR (Rice Flatsedge); [8]): 0.0 | Herbicidal rating CYPIR (CYPIR (Rice Flatsedge); [9]): 0.0 | Herbicidal rating CYPIR (CYPIR (Rice Flatsedge); [10]): 0.0 | Herbicidal rating CYPIR (CYPIR (Rice Flatsedge); [11]): 0.0

C[C@H](C(=O)O)N1C(=O)CSC1=Nc1cc(-n2c(=O)cc(C(F)(F)F)n(C)c2=O)c(F)cc1Cl [Compound 70, 2-{{2-Chloro-5-[3,6-dihydro-3-methyl-2,6-dioxo-4-(trifluoromethyl)-1(2H)-pyrimidinyl]-4-fluoro-phenyl}imino}-α-methyl-4-oxo-3-thiazolidineacetic acid, D-]
IPOHE herbicidal rating ([1]; rate 0.0158 kg/ha): 9.0 | IPOHE herbicidal rating ([1]; rate 0.0315 kg/ha): 9.0 | IPOHE herbicidal rating ([1]; rate 0.0630 kg/ha): 9.0 | ECHORC herbicidal effect rating ([2]; 0.0313 kg/ha): 0.0 | ECHORC herbicidal effect rating ([2]; 0.0625 kg/ha): 0.0 | ECHORC herbicidal effect rating ([2]; 0.1250 kg/ha): 0.0 | ECHORC herbicidal effect rating ([2]; 0.2500 kg/ha): 0.0 | Preemergence herbicidal rating IPOHE ([3]; rate 0.0156 kg/ha): 0.0 | Preemergence herbicidal rating IPOHE ([3]; rate 0.0313 kg/ha): 0.0 | Preemergence herbicidal rating IPOHE ([3]; rate 0.0625 kg/ha): 0.0 | Preemergence herbicidal rating IPOHE ([3]; rate 0.1250 kg/ha): 1.0 | Preemergence herbicidal rating IPOHE ([3]; rate 0.2500 kg/ha): 5.0 | ABUTH herbicidal rating (ABUTH (Velvetleaf); rate 0.0158 kg/ha): 1.0 | ABUTH herbicidal rating (ABUTH (Velvetleaf); rate 0.0315 kg/ha): 6.0 | ABUTH herbicidal rating (ABUTH (Velvetleaf); rate 0.0630 kg/ha): 9.0 | Preemergence herbicidal rating ECHCG (ECHCG (Barnyardgrass); rate 0.0156 kg/ha): 0.0 | Preemergence herbicidal rating ECHCG (ECHCG (Barnyardgrass); rate 0.0313 kg/ha): 0.0 | Preemergence herbicidal rating ECHCG (ECHCG (Barnyardgrass); rate 0.0625 kg/ha): 0.0 | Preemergence herbicidal rating ECHCG (ECHCG (Barnyardgrass); rate 0.1250 kg/ha): 1.0 | Preemergence herbicidal rating ECHCG (ECHCG (Barnyardgrass); rate 0.2500 kg/ha): 1.0 | TRZAWR herbicidal rating ([4]; rate 0.0158 kg/ha): 2.5 | TRZAWR herbicidal rating ([4]; rate 0.0315 kg/ha): 4.0 | TRZAWR herbicidal rating ([4]; rate 0.0630 kg/ha): 5.5 | Preemergence herbicidal rating TRZAWR ([5]; rate 0.0156 kg/ha): 0.0 | Preemergence herbicidal rating TRZAWR ([5]; rate 0.0313 kg/ha): 0.0 | Preemergence herbicidal rating TRZAWR ([5]; rate 0.0625 kg/ha): 0.0 | Preemergence herbicidal rating TRZAWR ([5]; rate 0.1250 kg/ha): 1.0 | Preemergence herbicidal rating TRZAWR ([5]; rate 0.2500 kg/ha): 5.0 | Herbicidal rating ECHORC [6, 12]: 0.0 | Herbicidal rating ECHORC [6, 13]: 0.0 | Herbicidal rating ECHORC [6, 14]: 0.0 | Herbicidal rating ECHORC [6, 15]: 0.0 | Preemergence herbicidal rating CHEAL ([7]; rate 0.0156 kg/ha): 2.0 | Preemergence herbicidal rating CHEAL ([7]; rate 0.0313 kg/ha): 9.0 | Preemergence herbicidal rating CHEAL ([7]; rate 0.0625 kg/ha): 9.0 | Preemergence herbicidal rating CHEAL ([7]; rate 0.1250 kg/ha): 9.0 | Preemergence herbicidal rating CHEAL ([7]; rate 0.2500 kg/ha): 9.0 | Preemergence herbicidal rating ORYSAT (ORYSAT (Rice, Tebonnet); rate 0.0156 kg/ha): 0.0 | Preemergence herbicidal rating ORYSAT (ORYSAT (Rice, Tebonnet); rate 0.0313 kg/ha): 0.0 | Preemergence herbicidal rating ORYSAT (ORYSAT (Rice, Tebonnet); rate 0.0625 kg/ha): 0.0 | Preemergence herbicidal rating ORYSAT (ORYSAT (Rice, Tebonnet); rate 0.1250 kg/ha): 1.0 | Preemergence herbicidal rating ORYSAT (ORYSAT (Rice, Tebonnet); rate 0.2500 kg/ha): 3.0 | Preemergence herbicidal rating SETVI (SETVI (Foxtail, Green); rate 0.0156 kg/ha): 0.0 | Preemergence herbicidal rating SETVI (SETVI (Foxtail, Green); rate 0.0313 kg/ha): 0.0 | Preemergence herbicidal rating SETVI (SETVI (Foxtail, Green); rate 0.0625 kg/ha): 2.0 | Preemergence herbicidal rating SETVI (SETVI (Foxtail, Green); rate 0.1250 kg/ha): 9.0 | Preemergence herbicidal rating SETVI (SETVI (Foxtail, Green); rate 0.2500 kg/ha): 9.0 | Herbicidal rating CYPIR (CYPIR (Rice Flatsedge); [12]): 0.0 | Herbicidal rating CYPIR (CYPIR (Rice Flatsedge); [13]): 2.0 | Herbicidal rating CYPIR (CYPIR (Rice Flatsedge); [14]): 2.0 | Herbicidal rating CYPIR (CYPIR (Rice Flatsedge); [15]): 2.0
